Measurements: ChEMBL document CHEMBL3046612, “Design, multicomponent synthesis, and bioactivities of novel neonicotinoid analogues with 1,4-dihydropyridine scaffold” (2010)

Assays:
[1] = system: Aphis craccivora; assay: Insecticidal activity against Aphis craccivora (cowpea aphid) in tender shoots of soybean assessed as mortality at 500 mg/L measured after 1 days (reference value: 4.3%); type: functional; settings: 24 h
[2] = system: Aphis craccivora; assay: Insecticidal activity against Aphis craccivora (cowpea aphid) in tender shoots of soybean assessed as mortality measured after 1 days; type: functional; settings: 24 h

SMILES	mortality at 500 µg/mL [1] [%]	LC50 [2] [µM]
N#CC1=C(N)N2CCN(Cc3ccc(Cl)nc3)C2=C([N+](=O)[O-])C1c1cccc(C#N)c1 (stereo unspecified)	80	–
COc1ccc(C2C(C#N)=C(N)N3CCN(Cc4ccc(Cl)nc4)C3=C2[N+](=O)[O-])cc1 (stereo unspecified)	100	9.75
O=[N+]([O-])/N=C1\NCCN1Cc1ccc(Cl)nc1 [IMIDACLOPRID]	100	–
Cc1ccc(F)cc1C1C(C#N)=C(N)N2CCN(Cc3ccc(Cl)nc3)C2=C1[N+](=O)[O-] (stereo unspecified)	100	96.1
N#CC1=C(N)N2CCN(Cc3ccc(Cl)nc3)C2=C([N+](=O)[O-])C1c1cccc(Br)c1 (stereo unspecified)	91.8	197
N#CC1=C(N)N2CCN(Cc3ccc(Cl)nc3)C2=C([N+](=O)[O-])C1c1ccc(C#N)cc1 (stereo unspecified)	93.7	175
N#CC1=C(N)N2CCN(Cc3ccc(Cl)nc3)C2=C([N+](=O)[O-])C1c1ccc(OC(F)(F)F)cc1 (stereo unspecified)	100	98
N#CC1=C(N)N2CCN(Cc3ccc(Cl)nc3)C2=C([N+](=O)[O-])C1c1ccc([N+](=O)[O-])cc1 (stereo unspecified)	77	–
N#CC1=C(N)N2CCN(Cc3ccc(Cl)nc3)C2=C([N+](=O)[O-])C1c1ccc(Cl)cc1F (stereo unspecified)	88	–
N#CC1=C(N)N2CCN(Cc3ccc(Cl)nc3)C2=C([N+](=O)[O-])C1c1ccccc1 (stereo unspecified)	83.1	–
N#CC1=C(N)N2CCN(Cc3ccc(Cl)nc3)C2=C([N+](=O)[O-])C1c1ccc(Cl)cc1Cl (stereo unspecified)	93.4	133
Cc1ccc(C2C(C#N)=C(N)N3CCN(Cc4ccc(Cl)nc4)C3=C2[N+](=O)[O-])c(F)c1 (stereo unspecified)	72.9	–
N#CC1=C(N)N2CCN(Cc3ccc(Cl)nc3)C2=C([N+](=O)[O-])C1c1ccc(Br)cc1Cl (stereo unspecified)	85	–
N#CC1=C(N)N2CCN(Cc3ccc(Cl)nc3)C2=C([N+](=O)[O-])C1c1cccc([N+](=O)[O-])c1 (stereo unspecified)	91.9	79
Cc1cc(C2C(C#N)=C(N)N3CCN(Cc4ccc(Cl)nc4)C3=C2[N+](=O)[O-])c(Br)cc1F (stereo unspecified)	75.9	–
Cc1c(F)cccc1C1C(C#N)=C(N)N2CCN(Cc3ccc(Cl)nc3)C2=C1[N+](=O)[O-] (stereo unspecified)	100	3.45
N#CC1=C(N)N2CCN(Cc3ccc(Cl)nc3)C2=C([N+](=O)[O-])C1c1ccc(Cl)cc1C(F)(F)F (stereo unspecified)	100	61.6
